Assay results as given in patent EP3362444B1, “COMPOUNDS” (Exonate Limited, priority 2015, dated 2017).

Columns and labels:
laser-induced CNV = assay: Laser-induced choroidal neovascularisation (CNV) model, topical eye drops; assay type: in vivo, C57/B6 mice; conditions: twice daily eye drops, compared with reference compound; Figures 4-7
Procedure: 6-8 week-old female C57/B6 mice were anesthetized with an intraperitoneal injection of a mixture of 50 mg/kg ketamine and 0.5 mg/kg medetomidine. The pupils were immediately dilated by topical (eyedrop) application with a dilator such as 5% phenylephrine hydrochloride and 1% tropicamide. Four photocoagulation lesions were delivered with a green Merilas 532α laser (450 mW, 130 ms) between the "large" retinal vessels in clear space with no vessels in a peripapillary distribution at a distance of 1-2 disc-diameters in each eye. Only clean laser lesions with a subretinal bubble at the time of treatment were included in the study. Immediately following laser photocoagulation the animals were given topical eye drops of candidate compounds twice daily (10 µl, eyes held for 30 seconds to prevent animal wiping drop away).
After one week, mice were anesthetized with an intraperitoneal injection of a mixture of 50 mg/kg ketamine and 0.5 mg/kg medetomidine. The pupils were immediately dilated by topical (eyedrop) application with a dilator such as 5% phenylephrine hydrochloride and 1% tropicamide. Mice were administered an intraperitoneal injection of sodium fluorescein (10%). Phase contrast and green fluorescent fundus images were taken with an angiography microscope and camera with each lesion in focus. The mice were killed by a schedule 1 method and eyes were either unfixed for retinal dissection and protein extraction, or fixed and enucleated and choroids stained and examined.

[1] = tested on: retinal pigmented epithelial cells; assay: Isoform specific VEGF ELISA in retinal pigmented epithelial cells; assay type: cell-based; conditions: relative to DMSO control; Figure 3
Procedure: 96-well clear microplate (high sensitivity thermo immulon or costar 9018) were coated with 100 µL of 10 µg/ml VEGFxxxb or 0.25 µg/ml anti-hVEGF165a per well. The plate was sealed with parafilm and incubated overnight on the shaker at room temp. Each well was aspirated and washed with Wash Buffer (200 µl PBS-Tween 0.05%), two times for a total of three washes. After the last wash, remaining Wash Buffer was removed by inverting the plate and blotting it against clean paper towels. Plates were blocked by adding 100 µl of Reagent Diluent (1%BSA/PBS) to each well and incubated at room temp on a shaker for 2 hours. The aspiration/wash step was repeated. 100 µL of standards or samples in 1% BSA/PBS were added to each well, covered with parafilm and incubated 2 hours at room temperature. The aspiration/wash was repeated and 100 µL of 100 ng/ml Detection Antibody (BAF293), diluted in Reagent Diluent, was added to each well which were covered with parafilm and incubated 2 hours at room temp. The aspiration/wash was repeated and 100 µL of the working dilution of Streptavidin-HRP (1:200 dilution) was added to each well. […] The optical density of each well was measured immediately, using a microplate reader set to 450 nm.
To determine whether these compounds could switch splicing of VEGF isoforms, VEGF was measured in retinal pigmented epithelial cells by isoform specific ELISA.

**Q.** What does the source list for `O=C(Nc1cc(C(F)(F)F)ccc1N1CCN(Cc2cocn2)CC1)c1ccc(-c2ccncc2)o1` [Compound 17, N-(2-(4-(oxazol-4-ylmethyl)piperazin-1-yl)-5-(trifluoromethyl)phenyl)-5-(pyridin-4-yl)furan-2-carboxamide]?
**A.** anti-angiogenic efficacy as an eye drop (CNV lesion size) (laser-induced CNV): same anti-angiogenic activity on lesion size and the same efficacy as reference compounds; VEGF165b and VEGF165 protein [1]: increase in VEGF165b, but not VEGF165 protein
